Source: patent US20180071242A1, “SUBSTITUTED ACYLANILIDES AND METHODS OF USE THEREOF” (University of Tennessee Research Foundation, priority 2006, published 2018)
“Also recorded” adds a separate entry of the source. Like-named read-outs stand apart in the source and are kept apart here.

Assays:
[1] = biological target: T1, Recombinant androgen receptor ligand binding domain (AR LBD) (Homo sapiens, UniProt P10275); assay: In vitro competitive radioligand binding assay with [3H]mibolerone
T1 sequence (P10275 669-900 limits assumed): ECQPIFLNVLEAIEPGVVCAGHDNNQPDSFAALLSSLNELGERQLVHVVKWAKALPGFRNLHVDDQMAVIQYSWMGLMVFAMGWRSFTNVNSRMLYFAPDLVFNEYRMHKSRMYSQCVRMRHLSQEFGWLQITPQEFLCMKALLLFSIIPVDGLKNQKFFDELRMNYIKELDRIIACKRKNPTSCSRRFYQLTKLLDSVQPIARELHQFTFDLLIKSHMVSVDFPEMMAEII
Method: Following incubation, plates were harvested with GF/B filters on the Unifilter-96 Harvester (PerkinElmer) and washed three times with ice-cold buffer B (60 mM Tris, pH 7.2). The filter plates were dried at RT, then 36 μl Microscint-O® cocktail was added to each well and sealed with TopSeal-A®. The receptor bound radioligand was then determined with the TopCount® NXT Microplate Scintillation Counter (PerkinElmer).
The equilibrium binding constant (Ki) of each compound was then determined with the following equation:

[2] = Metabolic stability measured in human liver microsomes; format: in vitro ADME; details: for microsomal CLint at 0.6 μM: human, pH 7.4, human liver microsomes
Method: Metabolic stability assays were performed in order to assess the in vitro half-life of the S-isomer of compound of formula (I) [S-(I)] when incubated with human liver microsomes. Intrinsic clearance values were extrapolated. Permeability of the compound across human, intestinal epithelial monolayers (Caco-2 cells) was assessed as a measure of intestinal permeability as well as an indicator of efflux potential. Caco-2 cells are often used as an early screening surrogate for oral bioavailability. Microsomal half-life can be converted to in vitro clearance values as a means to predict hepatic intrinsic clearance. Intrinsic clearance is defined as the functional ability of the liver to metabolize a drug or other compound.
S-(I) in this study was incubated at a final concentration of 0.6 μM. Microsome reactions were performed under either Phase I or “Phase I and II” conditions, where indicated. Compound stocks (10 mM ACN) were initially diluted to a concentration of 60 μM (in 60% ACN/H2O) resulting in a “working stock” solution of 100×. Human liver microsomes were utilized at a final concentration of […]. Duplicate wells were used for each time point (0, 6, 10, 30, and 60 minutes). Reactions were carried out at 37° C. in a shaking water bath, and the final concentration of solvent was kept constant at 0.6%. The final volume for each reaction was 600 μl, comprised of […] of 100 mM KPO4 buffer, (pH 7.4); 12.6 μl of HLM (from a 20 mg/ml stock); 6 μl of 100× “working stock” drug compound, and 126 μl of NRS “master mix” solution. At each time point, 100 μl of reaction was removed and added to a sample well containing 100 μl of ice-cold, 100% ACN (plus internal standards), to stop the reaction. The NRS “master mix” is a solution of glucose 6-phosphate dehydrogenase, NADP^+, MgCl2, and glucose 6-phosphate, prepared per manufacturer's instructions (BD Biosciences, Waltham, Mass.). Each […] stock of NRS “master mix” solution contains 3.8 ml H2O, 1.0 ml solution “A” (Cat. #461220), and 0.2 ml solution “B” (Cat. #461200). Human liver microsomes (lot #0610279, Xenotech Corp.) represented a pool of 60 donors.
Samples were centrifuged at 3,000 rpm for 10 minutes at 4° C. to remove debris and precipitated protein. […] The concentration of parent drug remaining in each well (expressed as percent remaining versus Time ‘0’, at the beginning of the reaction) was measured by LC/MS, as detailed below.
All samples were analyzed on the MDS/Sciex API4000 Q Trap system with electrospray ionization (ESI) in the positive or negative SIM mode, depending on the compounds. […] The percentage of parent drug compound remaining after each time point was determined relative to the initial measured concentration at the beginning of the reaction (T0 min). […]

[3] = test system: orchidectomized (ORX) male Sprague-Dawley rats; assay: Anabolic and androgenic activity in castrated (ORX) male rats; format: in vivo, rat; details: for Seminal vesicles weight: castrated (ORX) rats, oral gavage; for Anabolic ratio (muscle/prostate weight): castrated rats
Method: Anabolic and androgenic efficacy of compound of formula (I) administered by daily oral gavage were tested. The S-isomer of compound (I) [S-(I)] was synthesized and tested as described herein.
The test article for this study was weighed and dissolved in 10% DMSO (Fischer) diluted with PEG 300 (Acros Organics, NJ) for preparation of the appropriate dosage concentrations. The animals were housed in groups of 2 to 3 animals per cage. Animals were randomly assigned to one of seven groups consisting of 4 to 5 animals per group. Control groups (intact and ORX) were administered vehicle daily. S-(I) was administered via oral gavage at doses of 0.01, 0.03, 0.1, 0.3, 0.75, and 1 mg/day to both intact and ORX groups. Where appropriate, animals were castrated on day one of the study. Treatment with S-(I) began nine days post ORX and was administered daily via oral gavage for fourteen days.
The animals were sacrificed under anesthesia (ketamine/xyalzine, 87:13 mg/kg) and body weights were recorded. In addition, ventral prostate, seminal vesicles, and levator ani muscle were removed, individually weighed, normalized to body weight, and expressed as a percentage of intact control. Student's T-test was used to compare individual dose groups to the intact control group. Significance was defined a priori as a P-value <0.05. Ventral prostate and seminal vesicle weights were evaluated as a measure of androgenic activity, whereas levator ani muscle weight was evaluated as a measure of anabolic activity. Blood was collected from the abdominal aorta, centrifuged, and sera were frozen at −80° C. prior to determination of serum hormone levels. Serum luteinizing hormone (LH) and follicle stimulating hormone (FSH) concentrations were determined.

[4] = test system: DMD (−/−) UTRN (+/+) mice; assay: mdx mouse model of Duchenne muscular dystrophy
[5] = castrated mdx mice, 10 mg/kg/day subcutaneously, 12 weeks
[6] = castrated mdx mice, 10 mg/kg/day subcutaneously, 12 weeks, 10 mg/kg/day

C[C@](O)(COc1ccc(C#N)cc1)C(=O)Nc1ccc(C#N)c(Cl)c1 [S-(I), (S)—N-(3-chloro-4-cyanophenyl)-3-(4-cyanophenoxy)-2-hydroxy-2-methylpropanamide]
Ki [1]: 36.9 nM | Half Life (minutes) Phase I only ([2]; Phase I only): Stable | microsomal CLint at 0.6 μM ([2]; Phase I + II, read-out: CLint (μl/min/mg) Phase I + II): 2 µL/min/mg | microsomal CLint at 0.6 μM ([2]; Phase I only, read-out: CLint (μl/min/mg) Phase I only): < 1 µL/min/mg | half-life at 0.6 μM ([2]; pH 7.4, Phase I + II): 5.81 h | Seminal vesicles weight ([3]; 0.01 mg/day): 10%±3% | Seminal vesicles weight ([3]; 0.03 mg/day): 13%±4% | Seminal vesicles weight ([3]; 0.1 mg/day): 21%±6% | Seminal vesicles weight ([3]; 0.3 mg/day): 43%±8% | Seminal vesicles weight ([3]; 0.75 mg/day): 51%±9% | Seminal vesicles weight ([3]; 1 mg/day): 69%±14% | Anabolic ratio (muscle/prostate weight) ([3]; 0.01 mg/day): 3.02 | Anabolic ratio (muscle/prostate weight) ([3]; 0.03 mg/day): 2.13 | Anabolic ratio (muscle/prostate weight) ([3]; 0.1 mg/day): 2.27 | Anabolic ratio (muscle/prostate weight) ([3]; 0.3 mg/day): 1.90 | Anabolic ratio (muscle/prostate weight) ([3]; 0.75 mg/day): 1.83 | Anabolic ratio (muscle/prostate weight) ([3]; 1 mg/day): 1.51 | Fat mass (in words) [4, 5]: decrease | Grip strength (in words) [4, 5]: significant increase | Body weight (in words) [4, 6]: increased; also recorded: significant increase | Lean [muscle] mass (in words) [4, 6]: increased; also recorded: significant increase | Body weight (in words) ([4]; intact mdx mice): increased | Lean mass (in words) ([4]; intact mdx mice): increased
